Experiments:
Format in all cases: in vivo
[1] = tested on: Diabrotica balteata larvae; test: Diabrotica test (larvae in soil); conditions: 20 ppm (mg/l soil), Diabrotica balteata larvae on maize in treated soil
[2] = tested on: caterpillars of the army worm (Spodoptera exigua); test: Spodoptera exigua test; conditions: 500 ppm, cabbage leaves dipped
Procedure: To produce a suitable preparation of active compound, 1 part by weight of active compound is mixed with the stated amounts of solvent and emulsifier, and the concentrate is diluted with emulsifier-containing water to the desired concentration.
Cabbage leaves (Brassica oleracea) are treated by being dipped into the preparation of active compound of the desired concentration and are populated with caterpillars of the army worm (Spodoptera exigua) while the leaves are still moist.
After the desired period of time, the kill in % is determined. 100% means that all caterpillars have been killed; 0% means that none of the caterpillars have been killed.

[3] = tested on: Boophilus microplus resistent/SP-resistent Parkhurst-strain, adult sucked female; test: Test with Boophilus microplus resistent/SP-resistent Parkhurst-strain; conditions: 100 μg animal, injected into the abdomen; oviposition of fertile eggs after 7 days
Procedure: […] More dilute concentrations are prepared by dilution with the same solvent.
The test is carried out in 5-fold determination. […] The control of activity is made after 7 days for oviposition of fertile eggs. Eggs whose fertility cannot be seen from the outside are stored in glass tubes in a climate chamber until the larvae have been hatched. An activity of 100% means, that no tick has hatched fertile eggs.

[4] = tested on: adult Musca domestica, strain Reichswald (OP, SP, carbamate-resistent); test: Test with flies (Musca domestica); conditions: 100 ppm; treated filter paper; time not given
Procedure: 20 mg of active compound are dissolved in 1 ml of dimethyl sulphoxide. More dilute concentrations are prepared by dilution with distilled water.
2 ml of the preparation of active compound are pipetted onto a filter paper dish (Ø 9.5 cm), which are placed in a Petri dish of corresponding diameter. After drying of the filter dishes 25 test animals are transferred in the Petri dishes and covered.
After 1, 3, 5, 24 and 48 hours (or after the times given in the tables below) the activity of the preparation of active compound is determined. 100% means, that all flies have been killed, 0% means, that none of the flies have been killed.

SMILES | Kill rate in % after 7 d [2] [%] | activity/kill rate in % [4] [%] | also measured
N#Cc1cnn(C2CN(C(=O)Nc3ccc(SC(F)(F)F)cc3)N=C2c2ccc(Cl)cc2)c1 (stereo not shown) [drawing 37] | – | – | Kill rate in % after 10 d [1]: 100%
N#Cc1cnn(C2CN(C(=O)Nc3ccc(OC(F)(F)F)cc3)N=C2c2ccc(Cl)cc2)c1 (stereo not shown) [drawing 58] | 100 | – | –
N#Cc1cnn(C2CN(C(=O)Nc3ccc(C(F)(F)F)cc3)N=C2c2ccc(Cl)cc2)c1 (stereo not shown) [drawing 59] | 100 | – | –
N#Cc1cnn(C2CN(C(=O)Nc3ccc(SC(F)(F)F)cc3)N=C2c2ccc(Cl)cc2)c1 (stereo not shown) [drawing 60] | 100 | – | –
N#Cc1cnn(C2CN(C(=O)Nc3ccc(S(=O)(=O)C(F)(F)F)cc3)N=C2c2ccc(Br)cc2)c1 (stereo not shown) [drawing 91] | – | – | activity/kill rate in % [3]: 100%
N#CCN(C(=O)N1CC(n2cc(C#N)cn2)C(c2ccc(Cl)cc2)=N1)c1ccc(OC(F)(F)F)cc1 (stereo not shown) [drawing 92] | – | – | activity/kill rate in % [3]: 100%
N#Cc1cnn(C2CN(C(=O)Nc3ccc(OC(F)(F)F)cc3)N=C2c2ccc(Cl)cc2)c1 (stereo not shown) [drawing 93] | – | 30 | –
N#Cc1cnn(C2CN(C(=O)Nc3ccc(C(F)(F)F)cc3)N=C2c2ccc(Cl)cc2)c1 (stereo not shown) [drawing 94] | – | 30 | –
N#Cc1cnn(C2CN(C(=O)Nc3ccc(OC(F)(F)F)cc3)N=C2c2ccc(Br)cc2)c1 (stereo not shown) [drawing 95] | – | 75 | –
N#CCN(C(=O)N1CC(n2cc(C#N)cn2)C(c2ccc(Cl)cc2)=N1)c1ccc(OC(F)(F)F)cc1 (stereo not shown) [drawing 96] | – | 60 | –

Source: patent US20090143454A1, “Pyrazoline Derivatives and Their Use As Pesticides” (BAYER CROPSCIENCE AG, priority 2001, published 2009)
